Here are results for 29 molecules from article PMC4102417 (PLoS Neglected Tropical Diseases, 2014).

Test [1] deals with T. cruzi (Tulahuen strain). The test is described as follows: microbe, parasite or virus in culture. The format is cell-based, Trypanosoma cruzi. Conditions: for activity at 10 µM / EC50: Trypanosoma cruzi, TULAHUEN, Fibroblast; for activity at 10 µM: read-out: T. cruzi % growth @ 10 uM (Amastigotes); for EC50: read-out: T. cruzi EC50. An outline of the steps: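 Tulahuen parasites expressing beta-galactosidase were added (1×10^4 trypomastigotes/well) to 3T3 fibroblasts plated 24 h earlier, 4 h before compound (10 µM final).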

Another test has as its system 3T3 fibroblast cells. The test is described as follows: cells. The format is cell-based, murine. The following applies: for activity at 10 µM: Mus musculus, NIH3T3, 72 h, read-out: Mammalian (3T3) cell % growth at 10 uM.

Counter-ions that a name gives are not always drawn. Like-named read-outs stand apart in the source and are kept apart here.

As to `CC(Cc1cccc(C(F)(F)F)c1)NCCOC(=O)c1ccccc1` (stereo not shown) [BENFLUOREX, 2-({1-[3-(trifluoromethyl)phenyl]propan-2-yl}amino)ethyl benzoate], the activity at 10 µM in test [1] (120 h, 10 uM, Table S2) is 21.6%; in the test with 3T3 fibroblast cells (10 uM, Table S2), 96.6%.
On to `CN1CCC(=C2c3ccccc3Sc3ccccc32)CC1` [PIMETHIXENE, 1-methyl-4-(9H-thioxanthen-9-ylidene)piperidine], for which the activity at 10 µM came out at 3.9% in test [1] (120 h, 10 uM, Table S2) and 98.5% with 3T3 fibroblast cells (10 uM, Table S2).
Turning to `CC(=O)O[C@@H]1CC2C(C)(C)C(=O)CC[C@]2(C)C2CC[C@]3(C)C(=CC(=O)O[C@H]3c3ccoc3)[C@@]21C` (stereo partly shown) [DIHYDRODEOXYGEDUNIN], the “T. cruzi % growth @ 10 uM (Amastigotes)” value in test [1] (10 uM, Table S2) came to 23.4%. Also, in the test with 3T3 fibroblast cells (10 uM, Table S2), the “Mammalian (3T3) cell % growth at 10 uM” value is recorded as 83.8%.
Consider `CC(=O)O[C@@H]1CC2C(C)(C)[C@H](O)CC[C@]2(C)C2CC[C@@]3(C)[C@H](c4ccoc4)OC(=O)C4OC43[C@@]21C` (stereo partly drawn) [alpha-DIHYDROGEDUNOL], for which, in test [1] (10 uM, Table S2), the “T. cruzi % growth @ 10 uM (Amastigotes)” value is reported as 3.8%. Besides, the “Mammalian (3T3) cell % growth at 10 uM” value in the test on 3T3 fibroblast cells (10 uM, Table S2) worked out at 90.8%.
In the case of `C=C1C(=O)OC2CC1C(OC(C)=O)CC(C)=CCCC(C)=CCCC2(C)O` (stereo not shown) [CRASSIN ACETATE, 12-hydroxy-4,8,12-trimethyl-16-methylidene-15-oxo-14-oxabicyclo[11.3.1]heptadeca-4,8-dien-2-yl acetate], the activity at 10 µM in test [1] (120 h, 10 uM, Table S1) was 0.2%; with 3T3 fibroblast cells (10 uM, Table S1), 2.5%.
On to `C=CC(C)(O)CCC1C(=C)CCC2C(C)(CO)CCCC12C` (stereo not drawn) [EPI(13)TORULOSOL, 5-[5-(hydroxymethyl)-5,8a-dimethyl-2-methylidene-decahydronaphthalen-1-yl]-3-methylpent-1-en-3-ol], for which the activity at 10 µM in test [1] (120 h, 10 uM, Table S2) came to 14.5%; with 3T3 fibroblast cells (10 uM, Table S2), 86.1%.
Regarding `CCC(=C(c1ccccc1)c1ccc(OCCN(C)C)cc1)c1ccccc1` [TAMOXIFEN, {2-[4-(1,2-diphenylbut-1-en-1-yl)phenoxy]ethyl}dimethylamine], the activity at 10 µM in test [1] (120 h, 10 uM, Table S2) worked out at 22.5%; with 3T3 fibroblast cells (10 uM, Table S2), 97%.
Consider `CN1CCc2c(c3ccccc3n2Cc2ccccc2)C1.O=S(=O)(O)c1cccc2c(S(=O)(=O)O)cccc12` [MEBHYDROLIN NAPHTHALENESULFONATE, 5-benzyl-2-methyl-1H,2H,3H,4H,5H-pyrido[4,3-b]indole; naphthalene-1,5-disulfonic acid], for which the “T. cruzi % growth @ 10 uM (Amastigotes)” value in test [1] (10 uM, Table S2) stood at 3.3%. In addition, in the test with 3T3 fibroblast cells (10 uM, Table S2), the “Mammalian (3T3) cell % growth at 10 uM” value is 100%.
Take `O=C1C=C2C=CC3CC2(O1)C1CCCCN31` (stereo not shown) [SECURININE, 14-oxa-7-azatetracyclo[6.6.1.0^{1,11}.0^{2,7}]pentadeca-9,11-dien-13-one]: the activity at 10 µM in test [1] (120 h, 10 uM, Table S2) stood at 1.4%; with 3T3 fibroblast cells (10 uM, Table S2), 75%.
In the case of `COc1cc(NC(C)CCCN)c2ncccc2c1` (stereo not shown) [Primaquine, N-(5-aminopentan-2-yl)-6-methoxyquinolin-8-amine; bis(phosphoric acid)], the activity at 10 µM amounted to 4.7% in test [1] (120 h, 10 uM, Table S2) and 91.1% in the test with 3T3 fibroblast cells (10 uM, Table S2). For the same molecule, in test [1] (120 h, intracellular amastigotes, 5 days, separate assays separated by semicolons), the EC50 stood at 300 nM.
Turning to `Cc1[nH]c2ccccc2c1CN(C)C` [2-METHYL GRAMINE], the activity at 10 µM came out at 20.8% in test [1] (120 h, 10 uM, Table S2) and 86.9% in the test with 3T3 fibroblast cells (10 uM, Table S2).
In the case of `CCOc1ccc(C(=O)c2ccc(OC)c(O)c2O)cc1` [2,3-DIHYDROXY-4-METHOXY-4'-ETHOXYBENZOPHENONE], the activity at 10 µM in test [1] (120 h, 10 uM, Table S2) came out at 9.1%; in the test on 3T3 fibroblast cells (10 uM, Table S2), 95.8%.
With `CC12CCC3C(CCC4CC(O)CCC43C)C1CCC2=O` (stereo not shown) [EPIANDROSTERONE, 5-hydroxy-2,15-dimethyltetracyclo[8.7.0.0^{2,7}.0^{11,15}]heptadecan-14-one], the activity at 10 µM in test [1] (120 h) turned out to be 18.8%; with 3T3 fibroblast cells it was 100%.
As for `COc1ccc(-c2cc(=O)c3c(O)cc(O)cc3o2)cc1` [ACACETIN, 5,7-dihydroxy-2-(4-methoxyphenyl)-4H-chromen-4-one], the activity at 10 µM in test [1] (120 h, 10 uM, Table S2) was 23.1%; in the test with 3T3 fibroblast cells (10 uM, Table S2), 77.4%.
As for `CC1C=CC=CC=CC=CC=CC=CC=CC(OC2OC(C)C(O)C(N)C2O)CC2OC(O)(CC(O)CC(O)C(O)CCC(O)CC(O)CC(=O)OC(C)C(C)C1O)CC(O)C2C(=O)O` (stereo not shown) [AMPHOTERICIN B, 33-[(4-amino-3,5-dihydroxy-6-methyloxan-2-yl)oxy]-1,3,5,6,9,11,17,37-octahydroxy-15,16,18-trimethyl-13-oxo-14,39-dioxabicyclo[33.3.1]nonatriaconta-19,21,23,25,27,29,31-heptaene-36-carboxylic acid], the activity at 10 µM in test [1] (120 h, 10 uM, Table S2) stood at 20.6%; with 3T3 fibroblast cells (10 uM, Table S2), 89.7%. Besides, the concentration for a half-maximal effect (EC50) turned out to be 0.04 nM in test [1] (Table S2, amastigotes) and 40 nM in test [1].
For the molecule `CC(C)CC1C(=O)N2CCCC2C2(O)OC(NC(=O)C3C=C4c5cccc6[nH]c(Br)c(c56)CC4N(C)C3)(C(C)C)C(=O)N12` (stereo not shown) [BROMOCRIPTINE MESYLATE, 10-bromo-N-[2-hydroxy-7-(2-methylpropyl)-5,8-dioxo-4-(propan-2-yl)-3-oxa-6,9-diazatricyclo[7.3.0.0^{2,6}]dodecan-4-yl]-6-methyl-6,11-diazatetracyclo[7.6.1.0^{2,7}.0^{12,16}]hexadeca-1(15),2,9,12(16),13-pentaene-4-carboxamide; methanesulfonic acid], the activity at 10 µM in test [1] (120 h, 10 uM, Table S2) was determined as 2%; in the test with 3T3 fibroblast cells (10 uM, Table S2) it was 92.1%.
In the case of `NCC(=O)c1ccccc1` [PHENACYLAMINE, 2-amino-1-phenylethan-1-one hydrochloride], the activity at 10 µM in test [1] (120 h, 10 uM, Table S2) was 4.8%; in the test on 3T3 fibroblast cells (10 uM, Table S2), 85.5%.
For `c1ccc(-c2ccc(C(c3ccccc3)n3ccnc3)cc2)cc1` (stereo not shown) [BIFONAZOLE, 1-[phenyl(4-phenylphenyl)methyl]-1H-imidazole], the activity at 10 µM in test [1] (120 h, 10 uM, Table S2) worked out at 0.7%; with 3T3 fibroblast cells (10 uM, Table S2), 93.6%.
As to `CC1(C)C2CC(=O)O[C@@]3(C)C4=CC(=O)O[C@@H](c5ccoc5)[C@]4(C)CCC3[C@@]2(C)C=C[C@H]1O` (stereo partly shown) [DEOX[…]], the activity at 10 µM in test [1] (120 h, 10 uM, Table S2) amounted to 13.2%; in the test on 3T3 fibroblast cells (10 uM, Table S2), 82.7%.
Regarding `CC(C)CCC[C@@H](C)[C@H]1CC[C@H]2[C@@H]3C(=O)C=C4C[C@@H](O)CC[C@]4(C)[C@H]3CC[C@]12C` [7-OXOCHOLESTEROL, (1S,2R,5S,10S,11S,14R,15R)-5-hydroxy-2,15-dimethyl-14-[(2R)-6-methylheptan-2-yl]tetracyclo[8.7.0.0^{2,7}.0^{11,15}]heptadec-7-en-9-one], the activity at 10 µM in test [1] (120 h, 10 uM, Table S2) is 23.4%; in the test on 3T3 fibroblast cells (10 uM, Table S2), 68.5%.
Regarding `CCN(CC)CCOc1ccc(C(=C(Cl)c2ccccc2)c2ccccc2)cc1` [CLOMIPHENE, {2-[4-(2-chloro-1,2-diphenylethenyl)phenoxy]ethyl}diethylamine], the activity at 10 µM was determined as 12.9% in test [1] (120 h, 10 uM, Table S2) and 100% in the test with 3T3 fibroblast cells (10 uM, Table S2).
In the same order, the values of `CC(=O)OC[C@H]1O[C@@H](Oc2cc(OC(C)=O)c3c(=O)cc(-c4ccc(OC(C)=O)cc4)oc3c2)[C@H](OC(C)=O)[C@@H](OC(C)=O)[C@@H]1OC(C)=O` [COSMOSIIN HEXAACETATE] are 12.9% and 100%.
Consider `COc1ccc2c(c1)OCC(Cc1ccc(OC)c(OC)c1)C2=O` (stereo not shown) [3-[(3,4-dimethoxyphenyl)methyl]-7-methoxy-3,4-dihydro-2H-1-benzopyran-4-one], for which the activity at 10 µM was determined as 8.3% in test [1] (120 h, 10 uM, Table S2) and 84.5% with 3T3 fibroblast cells (10 uM, Table S2).
For `CC(=O)O[C@H]1CC[C@]2(C)C(C[C@H](OC(C)=O)[C@]3(C)C4=CC(=O)OC(c5ccoc5)[C@@]4(C)CCC23)C1(C)C` (stereo partly drawn) [3beta,7beta-[…]], the activity at 10 µM in test [1] (120 h, 10 uM, Table S2) was found to be 2.5%; in the test with 3T3 fibroblast cells (10 uM, Table S2), 72.2%.
For the molecule `CNc1ccc(C(=O)CC(O)CCC(C)C2OC(=O)CC(O)CC(=O)CC(O)CC(O)CC(O)CC(O)CC3(O)CC(O)C(C(=O)OC)C(CC(O[C@@H]4O[C@H](C)[C@@H](O)[C@H](N)[C@@H]4O)/C=C/C=C/C=C/C=C\C=C/C=C/C=C/C2C)O3)cc1` (stereo partly drawn) [MEPARTRICIN, methyl (19E,21E,23Z,25Z,27E,29E,31E)-33-{[(2R,3S,4S,5S,6R)-4-amino-3,5-dihydroxy-6-methyloxan-2-yl]oxy}-1,3,5,7,9,13,37-heptahydroxy-17-{5-hydroxy-7-[4-(methylamino)phenyl]-7-oxoheptan-2-yl}-18-methyl-11,15-dioxo-16,39-dioxabicyclo[33.3.1]nonatriaconta-19,21,23,25,27,29,31-heptaene-36-carboxylate], the activity at 10 µM in test [1] (120 h, 10 uM, Table S2) is 2.6%; with 3T3 fibroblast cells (10 uM, Table S2) it was 97.3%.
Turning to `COc1c(CC(=O)c2cc3c(cc2O)OC(C)(C)C(O)C3)ccc2c1C=CC(C)(C)O2` (stereo not shown) [DIHYDROMUNDULETONE], the activity at 10 µM came to 4.4% in test [1] (120 h, 10 uM, Table S2) and 81.3% in the test on 3T3 fibroblast cells (10 uM, Table S2).
On the same counts, the results for `CC(C)CCCC(C)C1CCC2C3CC(=O)C4CC(O)CCC4(C)C3CCC12C` (stereo not drawn) [5alpha-CHOLESTAN-3beta-OL-6-ONE, 5-hydroxy-2,15-dimethyl-14-(6-methylheptan-2-yl)tetracyclo[8.7.0.0^{2,7}.0^{11,15}]heptadecan-8-one] are 7.8% and 100%.
As to `COc1ccc(C(=O)c2ccc(O)cc2)c(O)c1O` [2,3,4'-TRIHYDROXY-4-METHOXYBENZOPHENONE], the activity at 10 µM was 3.6% in test [1] (120 h, 10 uM, Table S2) and 86.8% in the test on 3T3 fibroblast cells (10 uM, Table S2).
On to `CC(=O)OC1CCC2(C)C(CC(OC(C)=O)C3(C)C2CCC2(C)C(c4ccoc4)OC(=O)C4OC423)C1(C)C` (stereo not drawn) [3beta-ACETOXYDEOXODIHYDROGEDUNIN, 15-(acetyloxy)-7-(furan-3-yl)-1,8,12,16,16-pentamethyl-5-oxo-3,6-dioxapentacyclo[9.8.0.0^{2,4}.0^{2,8}.0^{12,17}]nonadecan-19-yl acetate], for which the activity at 10 µM was 7% in test [1] (120 h, 10 uM, Table S2) and 96.7% with 3T3 fibroblast cells (10 uM, Table S2).

Usually EC50 stands for the concentration giving half of the maximal effect.
